{"source": "patent US9125388B2", "about": "“Biological control” (Isis Innovation Limited, priority 1999, dated 2015)", "format_in_all_cases": "in vivo, Drosophila melanogaster", "key": {"[1]": {"system": "Hsp26 tTa, tRe Msl-1^Mpu on the 2nd chromosome", "assay": "Recombinant chromosome experiments: parents raised on supplement, progeny on normal food, adults by sex (25, 18 or 29° C.)", "description": "(§1) 40-45 young females and 20-25 young males raised at 25° C. upon food with the indicated tetracycline supplement were allowed to mate, then transferred to normal (tetracycline-free) food after 3-4 days. These flies were transferred to fresh vials of normal food every day for 12 days, then removed on the 13th day. All the vials were incubated at 25° C. while the progeny developed. The numbers of male and female progeny emerging as adults in each vial were recorded.\n(§2) A standard range of additive concentrations were used in the following experiments (0.05-20 μg/ml). […] (=“not done”)\n(§3) All the preceding experiments were performed at 25° C., the standard temperature for Drosophila culture. However, the insects in the wild would clearly be exposed to varying temperatures, so we investigated the extent to which the efficiency of the system is affected by temperature. As with the recombinant chromosome experiments, 40-45 young virgin females and 20-25 young males raised at 25° C. upon food with the indicated tetracycline supplement were allowed to mate, then transferred to normal (tetracycline-free) food after 3-4 days. These flies were transferred to fresh vials of normal food every day. The numbers of male and female progeny emerging as adults in each vial were recorded. These experiments were performed at either 18° C. or 29° C."}, "[2]": {"system": "Sxl^pe-tTA, tRE-Msl-2^Nopu on the third chromosome", "assay": "Recombinant chromosome experiments: parents raised on supplement, progeny on normal food, adults by sex (25, 18 or 29° C.)", "details": "for Female progeny per daily vial / Female progeny Total / Male progeny Total: 25° C.; for Female progeny per daily vial: Day 1-12 on tetracycline-free food; for Female progeny Total / Male progeny Total: Day 1-12 total", "description": "as §1, §2, §3"}, "[3]": {"system": "Sxlp^e tTa, tRe Msl-1^Mpu on the X chromosome", "assay": "Recombinant chromosome experiments: parents raised on supplement, progeny on normal food, adults by sex (25, 18 or 29° C.)", "description": "as §1, §2, §3"}, "[4]": {"system": "Yp3 tTa, tRe Msl-2^Nopu on the 2nd chromosome", "assay": "Recombinant chromosome experiments: parents raised on supplement, progeny on normal food, adults by sex (25, 18 or 29° C.)", "description": "as §1, §2, §3"}, "[5]": {"system": "Yp3 tTa, tRe Msl-1^Mpu on the 2nd chromosome", "assay": "Recombinant chromosome experiments: parents raised on supplement, progeny on normal food, adults by sex (25, 18 or 29° C.)", "description": "as §1\nSince there is no meiotic recombination in Drosophila melanogaster males, any of these recombinant chromosomes could be used in a genetic sexing or insect control program, if required.\nas §2, §3"}, "bnk-tTa × tRe-Nipp1Dm": {"system": "bnk-tTa × tRe-Nipp1Dm", "assay": "Tc-repressible lethality using an embryo-specific promoter (Table 2), adult progeny by sex", "details": "embryos laid on this food for 9 days", "from_the_text": "Flies were reared on standard yeast/cornmeal/agar food with a yeast concentration of 45-50 gl^−1. Tc-containing food was made to the same recipe with the addition of tetracycline hydrochloride (Sigma-Aldrich) solution to the appropriate final concentration.\nAs ectopic Ras64B^V12 apparently lacks embryonic toxicity under the conditions we are using, we placed a different toxic gene under the control of tRe. We chose to use Nipp1Dm, a Drosophila homolog of mammalian NIPP-1, a nuclear inhibitor of protein phosphatase type 1 (Beullens et al., (1992), J. Biol. Chem. 267, 16538-16544; Van Eynde et al., (1995), J Biol Chem 270, 28068-74). NIPP1 has several advantages as a “killer gene” in this system. Flies carrying homozygous insertions of bnk-tTa or tRe-Nipp1 were crossed to each other. […] Furthermore, F1 survival was not affected by the presence or absence of Tc in the media on which the F1 were raised. We have therefore constructed an efficient dominant lethal genetic system repressible by parental dietary Tc.\nMales homozygous for bnk-tTa were mated with females homozygous for either tRe-Ras64B^V12 or tRe-Nipp1Dm. These flies were raised on media lacking Tc, but before mating were placed on food containing various concentrations of Tc. They were allowed to lay embryos on this food for 9 days, and then the parents were removed. Their adult progeny of each sex were counted."}, "[6]": {"details": "parents raised on tetracycline 0.1 μg/ml, 18° C."}, "[7]": {"details": "parents raised on tetracycline 0.1 μg/ml, 29° C."}, "[8]": {"details": "parents raised on tetracycline 1 μg/ml, 18° C."}, "[9]": {"details": "parents raised on tetracycline 1 μg/ml, 29° C."}, "[10]": {"details": "parents raised on tetracycline 5 μg/ml, 18° C."}, "[11]": {"details": "parents raised on tetracycline 5 μg/ml, 29° C."}, "[12]": {"details": "parents raised on Tet. 0.1 μg/ml"}, "[13]": {"details": "parents raised on Tet. 20 μg/ml"}, "[14]": {"details": "parents raised on Tet. 100 μg/ml"}, "[15]": {"details": "parents raised on Tet. 500 μg/ml"}, "[16]": {"details": "parents raised on Tet. 1000 μg/ml"}, "[17]": {"details": "parents raised on Tet. 2000 μg/ml"}, "[18]": {"details": "parents on food containing Tc 0.1 μg/ml"}, "[19]": {"details": "parents on food containing Tc 1.0 μg/ml"}}, "data": [{"smiles": "CN(C)[C@@H]1C(O)=C(C(N)=O)C(=O)[C@@]2(O)C(O)=C3C(=O)c4c(O)cccc4[C@@](C)(O)[C@H]3C[C@@H]12", "note": "[Tetracycline, tetracycline]", "values": [{"measurement": "Female progeny emerging as adults", "setting": "[1]; [6]", "result": 6}, {"measurement": "Male progeny emerging as adults", "setting": "[1]; [6]", "result": 628}, {"measurement": "Female progeny emerging as adults", "setting": "[1]; [7]", "result": 0}, {"measurement": "Male progeny emerging as adults", "setting": "[1]; [7]", "result": 733}, {"measurement": "Female progeny emerging as adults", "setting": "[1]; [8]", "result": 3}, {"measurement": "Male progeny emerging as adults", "setting": "[1]; [8]", "result": 614}, {"measurement": "Female progeny emerging as adults", "setting": "[1]; [9]", "result": 0}, {"measurement": "Male progeny emerging as adults", "setting": "[1]; [9]", "result": 776}, {"measurement": "Female progeny emerging as adults", "setting": "[1]; [10]", "result": 5}, {"measurement": "Male progeny emerging as adults", "setting": "[1]; [10]", "result": 712}, {"measurement": "Female progeny emerging as adults", "setting": "[1]; [11]", "result": 0}, {"measurement": "Male progeny emerging as adults", "setting": "[1]; [11]", "result": 728}, {"measurement": "Female progeny per daily vial", "setting": "[2]; [12]", "result": 0}, {"measurement": "Female progeny Total", "setting": "[2]; [12]", "result": 0}, {"measurement": "Male progeny Total", "setting": "[2]; [12]", "result": 1267}, {"measurement": "Female progeny per daily vial", "setting": "[2]; parents raised on Tet. 1 μg/ml", "result": 0}, {"measurement": "Female progeny Total", "setting": "[2]; parents raised on Tet. 1 μg/ml", "result": 0}, {"measurement": "Male progeny Total", "setting": "[2]; parents raised on Tet. 1 μg/ml", "result": 1171}, {"measurement": "Female progeny per daily vial", "setting": "[2]; parents raised on Tet. 5 μg/ml", "result": 0}, {"measurement": "Female progeny Total", "setting": "[2]; parents raised on Tet. 5 μg/ml", "result": 0}, {"measurement": "Male progeny Total", "setting": "[2]; parents raised on Tet. 5 μg/ml", "result": 1165}, {"measurement": "Female progeny per daily vial", "setting": "[2]; [13]", "result": 0}, {"measurement": "Female progeny Total", "setting": "[2]; [13]", "result": 0}, {"measurement": "Male progeny Total", "setting": "[2]; [13]", "result": 1127}, {"measurement": "Female progeny per daily vial", "setting": "[2]; [14]", "result": 0}, {"measurement": "Female progeny Total", "setting": "[2]; [14]", "result": 0}, {"measurement": "Male progeny Total", "setting": "[2]; [14]", "result": 1168}, {"measurement": "Female progeny per daily vial", "setting": "[2]; [15]", "result": 0}, {"measurement": "Female progeny Total", "setting": "[2]; [15]", "result": 0}, {"measurement": "Male progeny Total", "setting": "[2]; [15]", "result": 1137}, {"measurement": "Female progeny Total", "setting": "[2]; [16]", "result": 3}, {"measurement": "Male progeny Total", "setting": "[2]; [16]", "result": 1309}, {"measurement": "Female progeny Total", "setting": "[2]; [17]", "result": 32}, {"measurement": "Male progeny Total", "setting": "[2]; [17]", "result": 1325}, {"measurement": "Female progeny emerging as adults", "setting": "[2]; [6]", "result": 2}, {"measurement": "Male progeny emerging as adults", "setting": "[2]; [6]", "result": 973}, {"measurement": "Female progeny emerging as adults", "setting": "[2]; [7]", "result": 0}, {"measurement": "Male progeny emerging as adults", "setting": "[2]; [7]", "result": 749}, {"measurement": "Female progeny emerging as adults", "setting": "[2]; [8]", "result": 9}, {"measurement": "Male progeny emerging as adults", "setting": "[2]; [8]", "result": 985}, {"measurement": "Female progeny emerging as adults", "setting": "[2]; [9]", "result": 0}, {"measurement": "Male progeny emerging as adults", "setting": "[2]; [9]", "result": 737}, {"measurement": "Female progeny emerging as adults", "setting": "[2]; [10]", "result": 5}, {"measurement": "Male progeny emerging as adults", "setting": "[2]; [10]", "result": 983}, {"measurement": "Female progeny emerging as adults", "setting": "[2]; [11]", "result": 0}, {"measurement": "Male progeny emerging as adults", "setting": "[2]; [11]", "result": 718}, {"measurement": "Female progeny emerging as adults", "setting": "[3]; [6]", "result": 8}, {"measurement": "Male progeny emerging as adults", "setting": "[3]; [6]", "result": 840}, {"measurement": "Female progeny emerging as adults", "setting": "[3]; [7]", "result": 0}, {"measurement": "Male progeny emerging as adults", "setting": "[3]; [7]", "result": 732}, {"measurement": "Female progeny emerging as adults", "setting": "[3]; [8]", "result": 5}, {"measurement": "Male progeny emerging as adults", "setting": "[3]; [8]", "result": 927}, {"measurement": "Female progeny emerging as adults", "setting": "[3]; [9]", "result": 0}, {"measurement": "Male progeny emerging as adults", "setting": "[3]; [9]", "result": 771}, {"measurement": "Female progeny emerging as adults", "setting": "[3]; [10]", "result": 8}, {"measurement": "Male progeny emerging as adults", "setting": "[3]; [10]", "result": 837}, {"measurement": "Female progeny emerging as adults", "setting": "[3]; [11]", "result": 0}, {"measurement": "Male progeny emerging as adults", "setting": "[3]; [11]", "result": 816}, {"measurement": "Female progeny emerging as adults", "setting": "[4]; [6]", "result": 8}, {"measurement": "Male progeny emerging as adults", "setting": "[4]; [6]", "result": 1152}, {"measurement": "Female progeny emerging as adults", "setting": "[4]; [7]", "result": 0}, {"measurement": "Male progeny emerging as adults", "setting": "[4]; [7]", "result": 765}, {"measurement": "Female progeny emerging as adults", "setting": "[4]; [8]", "result": 12}, {"measurement": "Male progeny emerging as adults", "setting": "[4]; [8]", "result": 1122}, {"measurement": "Female progeny emerging as adults", "setting": "[4]; [9]", "result": 0}, {"measurement": "Male progeny emerging as adults", "setting": "[4]; [9]", "result": 702}, {"measurement": "Female progeny emerging as adults", "setting": "[4]; [10]", "result": 3}, {"measurement": "Male progeny emerging as adults", "setting": "[4]; [10]", "result": 1225}, {"measurement": "Female progeny emerging as adults", "setting": "[4]; [11]", "result": 0}, {"measurement": "Male progeny emerging as adults", "setting": "[4]; [11]", "result": 773}, {"measurement": "escapers", "setting": "[5]; even at low (parental) tetracycline concentrations", "result": "< 1", "unit": "%"}, {"measurement": "Female progeny emerging as adults", "setting": "[5]; [6]", "result": 5}, {"measurement": "Male progeny emerging as adults", "setting": "[5]; [6]", "result": 1303}, {"measurement": "Female progeny emerging as adults", "setting": "[5]; [7]", "result": 0}, {"measurement": "Male progeny emerging as adults", "setting": "[5]; [7]", "result": 799}, {"measurement": "Female progeny emerging as adults", "setting": "[5]; [8]", "result": 14}, {"measurement": "Male progeny emerging as adults", "setting": "[5]; [8]", "result": 1218}, {"measurement": "Female progeny emerging as adults", "setting": "[5]; [9]", "result": 0}, {"measurement": "Male progeny emerging as adults", "setting": "[5]; [9]", "result": 749}, {"measurement": "Female progeny emerging as adults", "setting": "[5]; [10]", "result": 7}, {"measurement": "Male progeny emerging as adults", "setting": "[5]; [10]", "result": 1386}, {"measurement": "Female progeny emerging as adults", "setting": "[5]; [11]", "result": 0}, {"measurement": "Male progeny emerging as adults", "setting": "[5]; [11]", "result": 744}, {"measurement": "Females, adult progeny", "setting": "bnk-tTa × tRe-Nipp1Dm; [18]", "result": 58}, {"measurement": "Males, adult progeny", "setting": "bnk-tTa × tRe-Nipp1Dm; [18]", "result": 60}, {"measurement": "Females, adult progeny", "setting": "bnk-tTa × tRe-Nipp1Dm; [19]", "result": 82}, {"measurement": "Males, adult progeny", "setting": "bnk-tTa × tRe-Nipp1Dm; [19]", "result": 78}]}]}
